The test system of this assay is E. coli JW3193 ΔNanT expressing PmSiaT. Description: Growth of E. coli JW3193 ΔNanT expressing PmSiaT. It is filed as cell-based, Escherichia coli. Particulars: for effect on growth on sialic acid: 0.5 mM sialic acid + 1 mM inhibitor; for growth with inhibitor as only carbon source: 1 mM inhibitor. The source says:
To further investigate bacterial growth inhibition, we employed a model system of E. coli JW3193 ΔNanT expressing the SaSiaT and PmSiaT transporters. We designed these experiments to test if compounds 3e and 3f could inhibit the Neu5Ac transport in vivo because, without an active sialic acid transporter, E. coli JW3193 ΔNanT cannot grow on Neu5Ac.[16],[21]
For the bacterial growth experiments, the pJ422-01 plasmid containing the relevant SiaT or NanT gene was transformed into the E. coli JW3193 ΔnanT strain.[21] Throughout the experiments, strains containing the pJ422-01 plasmid were grown in media supplemented with 25 μg/mL Zeocin. E. coli BW25113, empty E. coli JW3193, and E. coli JW3193 with pJ422-01 containing the NanT gene were also used as controls. Strains were initially plated out from glycerol stocks before a single colony was picked and grown overnight in low salt LB media at 37 °C, with shaking at 180 rpm. Overnight cultures were diluted to an OD600 of 0.05 using low salt LB [supplemented with 1 mM isopropyl β-D-1-thiogalactopyranoside (IPTG)], before they were incubated at 37 °C, with shaking at 250 rpm, until they reached an OD600 of 0.3. At this point, 5 mL of each culture was centrifuged at 6000g for 5 min at 25 °C. The supernatants were removed and the cell pellets were resuspended in 5 mL of M9 MM without glucose prior to being centrifuged again at 6000g for 5 min at 25 °C. This wash step was repeated twice more before cells were resuspended to an OD600 of 0.5 in M9 MM without glucose. A Corning Costar Flat Bottom 96 Well TC-treated microplate was set up with 180 μL of M9 MM containing 1 mM IPTG (for the pJ422-01 strains) and either 5 mM glucose, 0.5 mM sialic acid, and 0.5 mM sialic acid with 1 mM of either inhibitor, or 1 mM of either inhibitor as a carbon source. To the 180 μL of media, 20 μL of each culture were added to the plate (OD600 of 0.05), before it was loaded into a FLUOstar Omega microplate reader (BMG Labtech). Growth was recorded at 600 nm every 10 min at 37 °C, with shaking at 300 rpm. Growth curves represent the mean and standard deviation of measurement from triplicate measurements (glucose/no carbon source in duplicate).
Fig. S5. Growth of E. coli JW3193 ΔNanT expressing the SaSiaT and PmSiaT transporters from a plasmid and using various carbon sources and in the presence or absence of inhibitors, 3e and 3f. […]
(B) PmSiaT is again expressed from a plasmid in the E. coli strain JW3193 ΔNanT, where the native sialic acid transporter (NanT) is deleted. The strain grows normally when in media with glucose (black line). There is no growth in the absence of any carbon source (grey line). In the presence of sialic acid at 0.5 mM the strain grows to an OD of ~0.5 (red line), showing that the transporter is functional. […]
substrates. […]

“Also recorded” adds a separate entry of the source.

As to `CC(=O)NC1C(OCc2cc(F)cc(F)c2)CC(O)(C(=O)O)OC1C(O)C(O)CO` (stereo not shown) [Compound 3e], the “effect on growth on sialic acid” value was “no effect on growth; also recorded: neither inhibitor seemed to alter bacterial growth” and the “growth with inhibitor as only carbon source” value is reported as “no growth”.

Take `CC(=O)NC1C(OCc2cc(Br)cc(Br)c2)CC(O)(C(=O)O)OC1C(O)C(O)CO` (stereo not shown) [Compound 3f]: the “effect on growth on sialic acid” value is “no effect on growth; also recorded: neither inhibitor seemed to alter bacterial growth” and the “growth with inhibitor as only carbon source” value was “no growth”.

For the origin of these results see paper PMC9295122, “Sialic Acid Derivatives Inhibit SiaT Transporters and Delay Bacterial Growth” (ACS Chemical Biology, 2022).
